# Test results taken from the supplement of paper PMC10307832.
# How the values were obtained:
# Assay in all cases: relative viability (nuclei count vs DMSO), 5 days (fraction); higher = more cells survive
# [1] = compound: C1=CC2=C(C=C(C(=C2N=C1)O)N=NC3=CC4=C(C=C3)C=C(C=C4)S(=O)(=O)O)S(=O)(=O)O + CC1(C)CCC(c2ccc(Cl)cc2)=C(CN2CCN(c3ccc(C(=O)NS(=O)(=O)c4ccc(N[C@H](CCN5CCOCC5)CSc5ccccc5)c(S(=O)(=O)C(F)(F)F)c4)cc3)CC2)C1 [Navitoclax] (partner 0.5 µM)
# Outline: (§1)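 Lung cancer cell lines were seeded in 1536-well plates and dosed by pin tool the next day, with either a single drug or a fixed anchor-drug dose combined with five library-drug doses (not always all listed) spaced in √10 steps. Five days later, one step fixed the cells and stained their nuclei (final 0.05% Triton X-100, 1% formaldehyde, 1 ug/ml Hoechst), and nuclei were counted on 4× images. Relative viability is the nuclei count in treated wells divided by the count in vehicle wells, and each value is the median of duplicate plates.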
# [2] = compound: C1=CC2=C(C=C(C(=C2N=C1)O)N=NC3=CC4=C(C=C3)C=C(C=C4)S(=O)(=O)O)S(=O)(=O)O + C[C@]1(O)C[C@@H](c2nc(-c3ccc4ccc(-c5ccccc5)nc4c3)c3c(N)nccn32)C1 [Linsitinib] (partner 1 µM)
# Outline: as §1
# [3] = compound: C1=CC2=C(C=C(C(=C2N=C1)O)N=NC3=CC4=C(C=C3)C=C(C=C4)S(=O)(=O)O)S(=O)(=O)O + CC(=O)Nc1cccc(-n2c(=O)n(C3CC3)c(=O)c3c(Nc4ccc(I)cc4F)n(C)c(=O)c(C)c32)c1 [Trametinib] (partner 0.02 µM)
# Outline: as §1
# [4] = compound: C1=CC2=C(C=C(C(=C2N=C1)O)N=NC3=CC4=C(C=C3)C=C(C=C4)S(=O)(=O)O)S(=O)(=O)O + CC(=O)c1c(C)c2cnc(Nc3ccc(N4CCNCC4)cn3)nc2n(C2CCCC2)c1=O [Palbociclib] (partner 0.5 µM)
# Outline: as §1
Cell Line,relative viability ([1]; first compound 0.08 µM),relative viability ([1]; first compound 0.253 µM),relative viability ([1]; first compound 0.8 µM),relative viability ([1]; first compound 2.53 µM),relative viability ([1]; first compound 8 µM),relative viability ([2]; first compound 0.08 µM),relative viability ([2]; first compound 0.253 µM),relative viability ([2]; first compound 0.8 µM),relative viability ([2]; first compound 2.53 µM),relative viability ([2]; first compound 8 µM),relative viability ([3]; first compound 0.08 µM),relative viability ([3]; first compound 0.253 µM),relative viability ([3]; first compound 0.8 µM),relative viability ([3]; first compound 2.53 µM),relative viability ([3]; first compound 8 µM),relative viability ([4]; first compound 0.08 µM),relative viability ([4]; first compound 0.253 µM),relative viability ([4]; first compound 0.8 µM),relative viability ([4]; first compound 2.53 µM),relative viability ([4]; first compound 8 µM)
LOU-NH91,0.72,0.672,0.704,0.723,0.687,0.991,0.988,0.957,0.973,0.891,0.841,0.77,0.759,0.733,0.797,0.573,0.524,0.503,0.559,0.558
LU99A,0.815,0.913,0.8,0.813,0.742,0.613,0.559,0.552,0.528,0.522,0.582,0.502,0.505,0.548,0.646,0.472,0.43,0.381,0.435,0.42
LXF-289,1,0.928,0.894,0.998,0.919,1.05,0.977,0.957,1.02,0.917,0.718,0.682,0.638,0.679,0.62,0.672,0.551,0.559,0.608,0.553
NCI-H23,1.09,0.742,0.936,0.89,1.01,0.625,0.446,0.63,0.722,0.578,0.39,0.319,0.392,0.443,0.346,0.538,0.471,0.448,0.574,0.477
NCI-H322M,1.35,1.22,1.19,1.16,1.22,0.905,0.925,0.845,0.916,0.99,0.535,0.544,0.566,0.504,0.528,0.473,0.462,0.501,0.454,0.514
NCI-H441,0.706,0.573,–,0.479,0.431,0.51,0.527,0.458,0.551,0.354,0.558,0.464,0.435,0.341,0.476,0.22,0.206,0.21,0.209,0.216
NCI-H460,1.2,1.09,1.1,1.11,1.04,1.08,0.809,0.757,0.889,0.665,0.187,0.0935,0.138,0.141,0.169,0.174,0.081,0.183,0.279,0.229
NCI-H520,1.17,0.99,1.07,1.07,1.13,1.1,1.12,1.07,0.968,1.01,0.784,0.6,0.768,0.625,0.807,0.247,0.247,0.27,0.237,0.212
NCI-H647,1.19,0.955,0.938,1.24,1.23,1.18,1.16,1.25,1.09,1.03,0.584,0.429,0.426,0.54,0.518,0.413,0.404,0.386,0.387,0.37
NCI-H727,0.358,0.378,0.415,0.453,0.49,0.223,0.287,0.371,0.32,0.269,0.344,0.398,0.351,0.356,0.335,0.674,0.652,0.659,0.634,0.694
NCI-H838,1.24,1.23,1.17,1.09,1.2,1.17,0.996,0.979,0.975,1.02,0.566,0.543,0.453,0.508,0.653,0.254,0.216,0.227,0.249,0.26
NCI-H1355,1.03,0.944,0.913,1.03,0.96,0.951,0.79,0.839,0.863,0.817,0.41,0.411,0.431,0.416,0.476,0.401,0.372,0.368,0.395,0.429
NCI-H1395,1.4,1.26,1.23,1.27,0.924,1.11,1.18,1.34,1,1.18,1.07,1.02,1.02,0.911,1.02,0.692,0.614,0.616,0.572,0.628
NCI-H1437,1.08,1.08,1.11,1.16,1.08,1.14,1.06,0.99,1.01,1.03,0.528,0.477,0.524,0.623,0.641,0.356,0.321,0.308,0.3,0.352
NCI-H1651,1.04,0.932,1.14,1.15,0.991,1.01,0.966,1.06,0.922,0.925,0.799,0.839,0.832,0.848,0.744,0.522,0.502,0.511,0.55,0.499
